One assay has as its system LM2 cells. The assay is described as follows: Lung metastasis formation after tail vein injection of LM2 cells, pharmacological targeting, bioluminescence imaging. The class given is in vivo, Balb/c nude mice. The note with it: preliminary results; drugs individually or in combination; FIGS. 2A and 2B.
Another assay deals with malignant cell lines. The conditions noted are these: in culture; cited from earlier work.
For a further assay, the system named is MMP-1, 3, 9, 10 and 11. The conditions noted are these: cited from earlier work.

SMILES strings stand for the structures.

Description for LM2 cells: Animal studies. All animal work was done in accordance with an IACUC approved protocol. Four to 6-week-old Balb/c nude mice (NCI) were used for all xenografting studies. For lung metastasis formation, 2×10^5 viable cells were washed and harvested in PBS and subsequently injected into the lateral tail vein in a volume of 0.1 mL. Endpoint assays were conducted at 15 weeks post-injection unless significant morbidity required that the mouse be sacrificed earlier. […] Mice were imaged for luciferase activity immediately after injection to exclude any that were not successfully xenografted.
Bioluminescent imaging and analysis. Mice were anesthetized and retro-orbitally injected with 1.5 mg of D-luciferin (15 mg/mL in PBS). Imaging was completed between 2-5 minutes post-injection using a Xenogen IVIS system coupled to Living Image acquisition and analysis software (Xenogen). For BLI plots, photon flux was calculated for each mouse using a rectangular region of interest (ROI) encompassing the thorax of the mouse in a prone position.

For `CNC(=O)[C@H](Cc1c[nH]c2ccccc12)NC(=O)[C@@H](CC(=O)NO)CC(C)C` [GM-6001, Ilomastat], the preventing lung metastasis result with LM2 cells is reported as “findings similar to those obtained using genetic knockdowns”.

Consider `CCC/C=C/C=C/C(=O)O[C@H]1/C(=C/C(=O)OC)C[C@H]2C[C@H]([C@@H](C)O)OC(=O)C[C@H](O)C[C@@H]3C[C@H](OC(C)=O)C(C)(C)[C@](O)(C[C@@H]4C/C(=C/C(=O)OC)C[C@H](/C=C/C(C)(C)[C@]1(O)O2)O4)O3` [bryostatin-1], for which the “differentiation and growth of malignant cell lines” value with malignant cell lines is “induce differentiation and halt the growth of several malignant cell lines”. Besides, the “production of MMP-1, 3, 9, 10 and 11” value in the assay with MMP-1, 3, 9, 10 and 11 (by inhibiting PKC) was “can inhibit the production of MMP-1, 3, 9, 10 and 11”. For the same compound, the “direct effect on activity of MMPs” value in the assay with MMP-1, 3, 9, 10 and 11 is on record as “does not directly affect the activity of MMPs”.

The record behind these values is patent US8178505B2, “Method of predicting and reducing risk of metastasis of breast cancer to lung” (Sloan-Kettering Institute for Cancer Research, priority 2005, dated 2012).
